Experimental data taken from patent US20240360145A1, “PYRIMIDINE-2,4-DIAMINE DERIVATIVES AS WELL AS PREPARATION METHOD THEREFOR AND USE THEREOF” (LISEN THERAPEUTICS, INC., priority 2022, published 2024).
Where a name gives a salt, the structure may show the parent alone. Read-outs that look alike come from different tables or passages of the source. Blank lines part the entries; values can stand above or below the molecule they belong to.

Legend:
LT015 primary cells = test: Cell viability IC50 (CCK-8), primary cells LT015 from small cell lung cancer bronchoscopic biopsy; assay type: cell-based; conditions: LT015, CCK-8
Experimental: (1) The tissue blocks obtained from the tumor patients were transferred from the preservation solution to the pre-cooled HBSS buffer containing antibiotics, and the tissue blocks were washed for three times with the pre-cooled HBSS buffer.
(2) Tissue was sheared on ice with sterile surgical instruments until no obvious tissue blocks are visible to the naked eye, the tissue fluid was collected into a 15 ml centrifuge tube, and this process takes about 5 to 10 minutes.
(3) Digestive enzymes (collagenase I, collagenase IV and neutral protease being mixed in a ratio of 1:1:1, a concentration of stock solution was 10 mg/ml, diluted with PBS buffer or HBSS buffer, and the use concentration was 1 mg/ml) were added to the centrifuge tube, and after mixing well by pipetting, the centrifuge tube was placed in a 37° C. constant temperature incubator for 1 to 2 hours.
(4) High-glucose medium was added to the centrifuge tube to stop digestion. After mixing well, the cell precipitate was collected by centrifugation, and resuspended with MBM medium (Advanced DMEM-F12+20 ng/ml bFGF+50 ng/ml EGF+1% ITS-X+2% B27+10 μMY-27632+1% PS). The cell suspension was placed in a Matrigel-coated 24-well plate and cultured for 5 to 7 days. When the cell density in the well plate reaches 80-90%, the cells were sub-cultured into a 6 cm cell culture dish, and when they grew to a density of 80% to 90%, the cells were cryopreserved for preservation.
(§1) (1) Primary cells from lung cancer pleural effusion within 5 generations were cultured to the logarithmic growth phase. When the confluence reached about 90%, the cells were digested with 0.25% trypsin, and complete culture medium was added to collect the cells. After centrifugation at room temperature, the supernatant was discarded, and the cell precipitate was resuspended with fresh complete culture medium. After counting, the cells were placed at room temperature for later use. The cells were inoculated into a 384-well plate at a density of 2000 cells/well with a volume of 40 μl/well. The wells at the outermost circle of the plate were not inoculated with cells, and instead, added with sterile water to reduce evaporation of the culture medium.
(§2) (2) After overnight culture of the cells, the medium was discarded, and a fresh medium containing different concentrations of compounds was added at 200 μl/well. The dilution method of the compound was as follows: first the compound with the highest concentration of 10 μM was prepared, and then the compound was diluted for 3 times in sequence. […] At the same time, a blank control group was set up, in which only an equal volume of culture medium was added without adding cells. Five replicate wells were set up for each group. The cells were placed in the incubator for further culture.
(§3) (3) After 72 hours, 8 μl of CCK-8 solution, which was double-diluted with 10 mM PBS, was added to each well, and the cells were shaken and placed in an incubator at 37° C. for further culture for 2 hours.
(§4) (4) The light absorbance value at 450 nm was read using a microplate reader, and the IC50 was calculated according to the absorbance value. The calculation method was the same as above.
(§5) (1) Sample information: PE039, PE052, and PE062 were all primary cell samples from pleural effusion of patients with small cell lung cancer, and LT015 was a primary cell sample from bronchoscopic biopsy of a patient with small cell lung cancer.
(§6) (2) CCK-8 detection was used to detect the IC50 values of different medicaments (compounds).

PE062 primary cells = test: Cell viability IC50 (CCK-8), primary cells PE062 from small cell lung cancer pleural effusion; assay type: cell-based; conditions: PE062, CCK-8
Experimental: (§7) (1) The pleural effusion was poured into a 15 mL or 50 mL of sterilized centrifuge tube for centrifugation. Centrifugation conditions: 800 to 1000 rpm, 5 min.
(§8) (2) The precipitate was resuspended and washed for 2 to 3 times with PBS.
(§9) (3) The cell precipitate was resuspended with complete culture medium (α-MEM medium containing 10% fetal bovine serum and 2% penicillin-streptomycin), and the flocculent matter in the pleural effusion was removed using a sterilized cell sieve.
(§10) (4) The red blood cells in the pleural effusion were removed with lymphocyte separation fluid, and the tumor cells and lymphocyte components were collected. The number of tumor cells was observed under a microscope, and the cells were inoculated.
(§11) (5) After 24 hours, the supernatant was discarded, and fresh culture medium was added for further culture.
(§12) (6) The cell growth status was observed, and it was determined based on the cell status whether the medium was required to be continuously changed to remove blood cells. When the cells grew to a density of 80% to 90%, the cells were preserved.
as §1, with “When the confluence reached about 90%, the cells were digested with 0.25% trypsin, and complete culture medium was added to collect the cells.” left out
as §2, §3, §4, §5, §6

PE052 primary cells = test: Cell viability IC50 (CCK-8), primary cells PE052 from small cell lung cancer pleural effusion; assay type: cell-based; conditions: PE052, CCK-8
Experimental: as §7, §8, §9, §10, §11, §12
as §1, with “When the confluence reached about 90%, the cells were digested with 0.25% trypsin, and complete culture medium was added to collect the cells.” left out
as §2, §3, §4, §5, §6

NCI-H1975 cells = test: Cell viability IC50 (MTT), Gefitinib-resistant NCI-H1975 cells
Experimental: (§15) 1% sodium pyruvate was additionally added when culturing NCI-H1975 cells. All the cells were cultured in a constant temperature incubator containing 5% CO2 at 37° C.
(§16) (1) The cells were cultured to the logarithmic growth phase. […] After centrifugation at room temperature, the supernatant was discarded, and the cell precipitate was resuspended with fresh complete medium. After counting, the cells were placed at room temperature for later use.
(§17) (2) The cells were inoculated into a 96-well plate at a density of 4,000 cells/well with a volume of 100 μl/well. The wells at the outermost circle of the plate were not inoculated with cells, and instead, added with sterile water to reduce evaporation of the culture medium.
(§18) (3) After overnight culture of the cells, the medium was discarded, and a fresh medium containing different concentrations of compounds was added at 200 μl/well. The dilution method of the compound was as follows: first the compound with the highest concentration of 10 μM was prepared, and then the compound was diluted for 3 times in sequence. […] At the same time, a blank control group was set up, in which only an equal volume of culture medium was added without adding cells. Six replicate wells were set up for each group. The cells were placed in the incubator for further culture.
(§19) (4) After 72 hours, 20 μl of MTT solution (5 mg/ml) sterilized by filtration through a 0.22 m filter membrane was added to each well, and the cells were cultured in an incubator at 37° C. for another 4 hours.
(§20) (6) IC50 of the compounds for different cells was calculated based on the light absorption value of each group. Specifically, the absorbance value under treatment with different concentrations of compounds was first subtracted from the absorbance value of the blank well, and then the absorbance value of the 0 μM group was taken as 100% to calculate the cell survival rate after treatment with different concentrations of compounds. That is, survival rate=((ODexperimental well−ODblank control)/(ODnegative control−ODblank control))×100%. IC50 values were calculated based on the survival rate and concentration of the compound.

NCI-H1650 cells = test: Cell viability IC50 (MTT), Gefitinib- and Osimertinib-resistant NCI-H1650 cells; conditions: Homo sapiens, NCI-H1650, 72 h, read-out: cell viability IC50
Experimental: as §15, §16, §17, §18, §19, §20

NCI-H146 cells = test: Cell viability IC50 (CCK-8), small cell lung cancer cell line H146; assay type: cell-based; conditions: Homo sapiens, NCI-H146; H146, CCK-8
Experimental: (§13) Small cell lung cancer cell lines DMS114, NCI-H1688, NCI-H82, NCI-H146, and NCI-H446 cells were cultured in RPMI-1640 medium containing 10% fetal bovine serum and 1% penicillin-streptomycin. All the cells were cultured in a constant temperature incubator containing 5% CO2 at 37° C.
(§14) Small cell lung cancer is a highly heterogeneous malignant tumor, and its clinical treatment is mainly based on traditional chemotherapy (mainly platinum medicaments and etoposide). In order to study the anti-tumor activity of the compounds of the present disclosure in small cell lung cancer, the CCK-8 method was used to investigate the cell viability IC50 of compound 8 for five small cell lung cancer cell lines.

DMS114 cells = test: Cell viability IC50 (CCK-8), small cell lung cancer cell line DMS114; assay type: cell-based; conditions: Homo sapiens, DMS-114; DMS114, CCK-8
Experimental: as §13, §14

NCI-H446 cells = test: Cell viability IC50 (CCK-8), small cell lung cancer cell line H446; assay type: cell-based; conditions: Homo sapiens, NCI-H446; H446, CCK-8
Experimental: as §13, §14

NCI-H1688 cells = test: Cell viability IC50 (CCK-8), small cell lung cancer cell line H1688; assay type: cell-based; conditions: NCI-H1688; H1688, CCK-8
Experimental: as §13, §14

NCI-H82 cells = test: Cell viability IC50 (CCK-8), small cell lung cancer cell line H82; assay type: cell-based; conditions: Homo sapiens, NCI-H82; H82, CCK-8
Experimental: as §13, §14

PE043 primary cells = test: Cell viability IC50 (CCK-8), primary cells PE043 from lung adenocarcinoma pleural effusion resistant to EGFR-TKI; conditions: read-out: cell viability IC50
Experimental: (1) Primary cells from lung cancer pleural effusion within 5 generations were cultured to the logarithmic growth phase. […] After centrifugation at room temperature, the supernatant was discarded, and the cell precipitate was resuspended with fresh complete culture medium. After counting, the cells were placed at room temperature for later use. The cells were inoculated into a 384-well plate at a density of 2000 cells/well with a volume of 40 μl/well. The wells at the outermost circle of the plate were not inoculated with cells, and instead, added with sterile water to reduce evaporation of the culture medium.

PE039 primary cells = test: Cell viability IC50 (CCK-8), primary cells PE039 from small cell lung cancer pleural effusion; assay type: cell-based; conditions: PE039, CCK-8
Experimental: as §7, §8, §9, §10, §11, §12
as §1, with “When the confluence reached about 90%, the cells were digested with 0.25% trypsin, and complete culture medium was added to collect the cells.” left out
as §2, §3
(4) The light absorbance value at 450 nm was read using a microplate reader, and the IC50 was calculated according to the absorbance value. The calculation method was the same as above. […]

[1] = Homo sapiens, NCI-H1975, 72 h, read-out: cell viability IC50

SMILES: COc1cc2c(Oc3ccc4[nH]c(C)cc4c3F)ccnc2cc1OCC1(N)CC1 [Anlotinib]
IC50 (LT015 primary cells): 2070 nM
IC50 (PE062 primary cells): 1500 nM
IC50 (PE052 primary cells): 9440 nM

SMILES: CN1CCN(Cc2ccc(Nc3ncc(Cl)c(Nc4ccccc4S(=O)(=O)N(C)C)n3)cn2)CC1 [Compound 2, 2-((5-chloro-2-((6-((4-methylpiperazin-1-yl)methyl)pyridin-3-yl)amino)pyrimidin-4-yl)amino)-N,N-dimethylbenzenesulfonamide]
IC50 (NCI-H1975 cells; [1]): 86.4 nM
IC50 (NCI-H1650 cells): 466 nM

SMILES: CN(C)CCN1Cc2ccc(Nc3ncc(Cl)c(Nc4ccccc4S(=O)(=O)N(C)C)n3)cc2C1 [Compound 3, 2-((5-chloro-2-((2-(2-(dimethylamino)ethyl)isodihydroindol-5-yl)amino)pyrimidin-4-yl)amino)-N,N-dimethylbenzenesulfonamide]
IC50 (NCI-H1975 cells; [1]): 28.3 nM
IC50 (NCI-H1650 cells): 37.8 nM

SMILES: CN(C)C1CCN(Cc2ccc(Nc3ncc(Cl)c(Nc4ccccc4S(=O)(=O)N(C)C)n3)cc2)C1 (centres unmarked) [Compound 4, 2-((5-chloro-2-((4-((3-(dimethylamino)pyrrolidin-1-yl)methyl)phenyl)amino)pyrimidin-4-yl)amino)-N,N-dimethylbenzenesulfonamide]
IC50 (NCI-H1975 cells; [1]): 87.7 nM
IC50 (NCI-H1650 cells): 163 nM

SMILES: CN1C2CCC1CN(Cc1ccc(Nc3ncc(Cl)c(Nc4ccccc4S(=O)(=O)N(C)C)n3)cc1)C2 [Compound 9, 2-((5-chloro-2-((4-((8-methyl-3,8-diazabicyclo[3.2.1]octan-3-yl)methyl)phenyl)amino)pyrimidin-4-yl)amino)-N,N-dimethylbenzenesulfonamide]
IC50 (NCI-H1975 cells; [1]): 25.3 nM
IC50 (NCI-H1650 cells): 170 nM

SMILES: C[C@@H]1CN(Cc2ccc(Nc3ncc(Cl)c(Nc4ccccc4S(=O)(=O)N(C)C)n3)cc2)C[C@H](C)N1C [Compound 10, 2-((5-chloro-2-((4-(((3R,5S)-3,4,5-trimethylpiperazin-1-yl)methyl)phenyl)amino)pyrimidin-4-yl)amino)-N,N-dimethylbenzenesulfonamide]
IC50 (NCI-H1975 cells; [1]): 21.5 nM
IC50 (NCI-H1650 cells): 136 nM

SMILES: CNCCN1CCc2cc(Nc3ncc(Cl)c(Nc4ccccc4S(=O)(=O)N(C)C)n3)ccc2C1 [Compound 12, 2-((5-chloro-2-((2-(2-(methylamino)ethyl)-1,2,3,4-tetrahydroisoquinolin-6-yl)amino)pyrimidin-4-yl)amino)-N,N-dimethylbenzenesulfonamide]
IC50 (NCI-H1975 cells; [1]): 18.6 nM
IC50 (NCI-H1650 cells): 75.2 nM

SMILES: CNS(=O)(=O)c1ccccc1Nc1nc(Nc2ccc(CN3C4CCC3CN(C)C4)cc2)ncc1Cl [Compound 15, 2-((5-chloro-2-((4-((3-methyl-3,8-diazabicyclo[3.2.1]octan-8-yl)methyl)phenyl)amino)pyrimidin-4-yl)amino)-N-methylbenzenesulfonamide]
IC50 (NCI-H146 cells): 16.2 nM
IC50 (DMS114 cells): 8.53 nM
IC50 (NCI-H446 cells): 6.54 nM
IC50 (NCI-H1688 cells): 9.16 nM

SMILES: Nc1ccn([C@@H]2O[C@H](CO)[C@@H](O)C2(F)F)c(=O)n1 [Gemcitabine]
IC50 (PE043 primary cells): > 834000 nM

SMILES: C=CC(=O)Nc1cc(Nc2nccc(-c3cn(C)c4ccccc34)n2)c(OC)cc1N(C)CCN(C)C [Osimertinib]
IC50 (PE039 primary cells): 3990 nM
IC50 (PE062 primary cells): 2740 nM
IC50 (NCI-H1650 cells): 2750 nM
IC50 (PE052 primary cells): 568 nM
IC50 (PE043 primary cells): 3370 nM

Results, then the molecule that gave them:

IC50 (NCI-H1975 cells; [1]): 47.7 nM
IC50 (NCI-H1650 cells): 250 nM
SMILES: CN1CCN(Cc2ccc(Nc3ncc(Cl)c(Nc4ccncc4S(=O)(=O)N(C)C)n3)cc2)CC1 [Compound 6, 4-((5-chloro-2-((4-((4-methylpiperazin-1-yl)methyl)phenyl)amino)pyrimidin-4-yl)amino)-N,N-dimethylpyridine-3-sulfonamide]

IC50 (NCI-H1975 cells; [1]): 29.1 nM
IC50 (NCI-H1650 cells): 32.5 nM
SMILES: COCCN1CCc2cc(Nc3ncc(Cl)c(Nc4ccccc4S(=O)(=O)N(C)C)n3)ccc2C1 [Compound 11, 2-((5-chloro-2-((2-(2-methoxyethyl)-1,2,3,4-tetrahydroisoquinolin-6-yl)amino)pyrimidin-4-yl)amino)-N,N-dimethylbenzenesulfonamide formate]

IC50 (NCI-H1975 cells; [1]): 19.8 nM
IC50 (NCI-H1650 cells): 67.3 nM
SMILES: CN(C)CCN1CCc2cc(Nc3ncc(Cl)c(Nc4ccccc4S(=O)(=O)N(C)C)n3)ccc2C1 [Compound 13, 2-((5-chloro-2-((2-(2-(dimethylamino)ethyl)-1,2,3,4-tetrahydroisoquinolin-6-yl)amino)pyrimidin-4-yl)amino)-N,N-dimethylbenzenesulfonamide formate]

IC50 (PE062 primary cells): 900 nM
SMILES: C[C@@H](Oc1cc(-c2cnn(C3CCNCC3)c2)cnc1N)c1c(Cl)ccc(F)c1Cl [Crizotinib]

IC50 (LT015 primary cells): 48200 nM
IC50 (PE062 primary cells): 770 nM
IC50 (NCI-H146 cells): 434 nM
IC50 (DMS114 cells): 917 nM
IC50 (NCI-H446 cells): 1060 nM
IC50 (NCI-H82 cells): 545 nM
IC50 (NCI-H1688 cells): 739 nM
SMILES: COc1cc([C@@H]2c3cc4c(cc3[C@@H](O[C@@H]3O[C@@H]5CO[C@@H](C)O[C@H]5[C@H](O)[C@H]3O)[C@H]3COC(=O)[C@H]23)OCO4)cc(OC)c1O [Etoposide]
